# From the supplement of paper PMC10920090
# Legend:
# [1] = tested on: MDA-MB-231; experiment: drug sensitivity score (DSS), cytotoxicity CellTox Green; higher = more cytotoxic; extreme values may be limits of the assay; details: 72 h
# [2] = tested on: MDA-MB-231; experiment: drug sensitivity score (DSS), cell viability CellTiter-Glo; higher = more sensitive; extreme values may be limits of the assay; details: 72 h
# 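Throughout, for drug sensitivity score (DSS), cytotoxicity CellTox Green: DSS summarises each dose–response curve by combining IC50, EC50, maximal inhibition and efficacy across drug concentrations.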
Compound,drug sensitivity score ([1]; shRNA: shPPFIA1_1),drug sensitivity score ([1]; shRNA: shScramble),drug sensitivity score ([2]; shRNA: shPPFIA1_1),drug sensitivity score ([2]; shRNA: shScramble)
CC(C)(C)C[C@@H]1N[C@@H](C(=O)N[C@H]2CC[C@H](O)CC2)[C@H](c2cccc(Cl)c2F)[C@]12C(=O)Nc1cc(Cl)ccc12,0 DSS,0.7 DSS,0 DSS,0 DSS
CC(C)Oc1ccc(C(=O)N[C@H](CNC(=O)CN(C)C)Cc2ccc(-c3cn4cccc([C@H](C)O)c4n3)cc2)cc1Cl,10.3 DSS,6.2 DSS,3.5 DSS,13.6 DSS
CCNC(=O)C[C@@H]1N=C(c2ccc(Cl)cc2)c2cc(OC)ccc2-n2c(C)nnc21,0 DSS,0 DSS,0 DSS,6.2 DSS
CCc1cc(Nc2nccc(-c3c(-c4ccc(OC)c(C(=O)Nc5c(F)cccc5F)c4)nc4ccccn34)n2)c(OC)cc1N1CCC(N2CCN(S(C)(=O)=O)CC2)CC1,0 DSS,0 DSS,2.9 DSS,2.4 DSS
CCc1cncnc1N1CCN(Cc2nc3ccc(C(F)(F)F)cc3[nH]2)CC1,0.6 DSS,0 DSS,0 DSS,1.3 DSS
CCn1c(-c2nonc2N)nc2c(C#CC(C)(C)O)ncc(OC[C@H]3CCCNC3)c21,0 DSS,0 DSS,0 DSS,0.2 DSS
CCn1c(-c2nonc2N)nc2cnc(Oc3cccc(NC(=O)c4ccc(OCCN5CCOCC5)cc4)c3)cc21,0 DSS,0 DSS,0 DSS,1.5 DSS
CCn1c(C(=O)N(C2CC2)C2CC2)cc2c3c(ncn3C)c(Nc3cc(C)n(C)n3)nc21,0 DSS,0 DSS,0 DSS,0 DSS
CCn1cc(-c2ccnc3[nH]c(-c4cccc(CN(C)C)c4)cc23)c(-c2ccc(NC(=O)N(C)C)cc2)n1,0 DSS,6.4 DSS,3.9 DSS,0 DSS
CN(c1ccccc1CNc1nc(Nc2ccc3c(c2)CC(=O)N3)ncc1C(F)(F)F)S(C)(=O)=O,4.1 DSS,4 DSS,2.3 DSS,5.3 DSS
CN(c1ncccc1CNc1nc(Nc2ccc3c(c2)CC(=O)N3)ncc1C(F)(F)F)S(C)(=O)=O,2.5 DSS,1.8 DSS,0.5 DSS,5.8 DSS
CN1CCC(COc2cnc(-c3cccc(Cn4nc(-c5cccc(C#N)c5)ccc4=O)c3)nc2)CC1,0 DSS,0 DSS,0 DSS,0 DSS
CNC(=O)c1ccc(C)c(-n2c(C)cc(OCc3ccc(F)cc3F)c(Br)c2=O)c1,0 DSS,0 DSS,0 DSS,0 DSS
CNC(=O)c1ccccc1Nc1nc(Nc2ccc3c(c2OC)CCC[C@H](N2CCN(CCO)CC2)C3)ncc1Cl,8.9 DSS,0 DSS,4 DSS,6.1 DSS
CNc1nc(-c2ccc3c(N)n[nH]c3c2)cc(N2C[C@@H](C(=O)NC3CCCCC3)CC[C@H]2C)n1,0 DSS,0 DSS,0 DSS,3.6 DSS
CNc1ncc2cc(-c3cc(NC(=O)NCCC(C)(C)C)c(F)cc3C)c(C)nc2n1,21.9 DSS,19.4 DSS,0.6 DSS,14.8 DSS
COCC(=O)NC/C=C/c1ccc2ncnc(Nc3ccc(Oc4ccc(C)nc4)c(C)c3)c2c1,2.2 DSS,0 DSS,0 DSS,0.3 DSS
COc1cc2ncnc(Oc3cccc(NC(=O)Nc4cc(C(C)(C)C(F)(F)F)on4)c3)c2cc1OC,4 DSS,7.8 DSS,0 DSS,7.7 DSS
COc1ccc(-c2cc3c(C)nc(N)nc3n([C@H]3CC[C@H](OCCO)CC3)c2=O)cn1,1.1 DSS,2.4 DSS,0 DSS,6.2 DSS
COc1ccc(Cn2ccc3ccc(C(=O)NO)cc32)cc1,10.5 DSS,0 DSS,0 DSS,0 DSS
CS(=O)(=O)N1CCc2c(-c3cnc(N)nc3)nc(N3CCOCC3)nc21,0 DSS,0 DSS,0 DSS,7.7 DSS
C[C@@H](Oc1cc(-n2cnc3ccc(CN4CCN(C)CC4)cc32)sc1C(N)=O)c1ccccc1C(F)(F)F,10 DSS,7 DSS,1.5 DSS,5.2 DSS
C[C@@H](Oc1ccc2[nH]nc(/C=C/c3cnn(CCO)c3)c2c1)c1c(Cl)cncc1Cl,0 DSS,0 DSS,0 DSS,4.8 DSS

Compound,drug sensitivity score ([1]; shRNA: shPPFIA1_1),drug sensitivity score ([1]; shRNA: shScramble),drug sensitivity score ([2]; shRNA: shPPFIA1_1),drug sensitivity score ([2]; shRNA: shScramble)
C[C@@H]1CN(CC(=O)Nc2ccc3c(c2)Cc2cccc(-c4cc(=O)cc(N5CCOCC5)o4)c2S3)C[C@H](C)O1,0.2 DSS,0 DSS,0 DSS,3.6 DSS
C[C@@]1(C(=O)Nc2ccc(F)nc2)CCCN1c1nc(Nc2cc(C3CC3)n[nH]2)c2cccn2n1,0.8 DSS,0 DSS,0.2 DSS,3.7 DSS
C[C@H]1Oc2cc(cnc2N)-c2c(nn(C)c2C#N)CN(C)C(=O)c2ccc(F)cc21,0 DSS,0 DSS,0 DSS,0 DSS
Cc1c(Cn2c(C)nc3c(C(=O)O)cc(N4CCOCC4)cc32)cccc1C(F)(F)F,0 DSS,0 DSS,3.6 DSS,2.8 DSS
Cc1c(NC(=O)OC[C@@H]2COCCN2)cn2ncnc(Nc3ccc4c(cnn4Cc4cccc(F)c4)c3)c12,0 DSS,0 DSS,1.2 DSS,2.4 DSS
Cc1ccc(C(=O)N(CCCN)[C@@H](c2oc3cc(Cl)ccc3c(=O)c2Cc2ccccc2)C(C)C)cc1,9.8 DSS,8.7 DSS,0 DSS,6.3 DSS
Cc1ccc2nc(CN(CCN(Cc3nc4ccc(C)cc4[nH]3)Cc3nc4ccc(C)cc4[nH]3)Cc3nc4ccc(C)cc4[nH]3)[nH]c2c1,6.8 DSS,1.9 DSS,0.6 DSS,2.6 DSS
Cc1cccc(CC(=O)N2CCc3c2ccc(-c2cn(C)c4ncnc(N)c24)c3F)n1,15 DSS,0 DSS,0 DSS,0.3 DSS
Cc1nc(Nc2n[nH]c3c2CN(C(=O)N[C@H](CN(C)C)c2ccccc2)C3(C)C)c2sccc2n1,5.8 DSS,4.8 DSS,5.6 DSS,10.1 DSS
Cc1ncc(Cl)cc1NCc1ccc(C(=O)N[C@@H](CC2CCCC2)C(=O)NC2CC2)s1,0 DSS,0 DSS,0 DSS,0 DSS
Cc1nn(C)c(COc2ccc(N3CCN(S(=O)(=O)N(C)C)CC3)cc2)c1-c1cccc2c(CCCOc3cccc4ccccc34)c(C(=O)O)n(CCN3CCOCC3)c12,2.4 DSS,7.1 DSS,13.3 DSS,4.2 DSS
Cn1cc(-c2ccc3nnc(C(F)(F)c4ccc5ncccc5c4)n3n2)cn1,0 DSS,0 DSS,0 DSS,6.9 DSS
Cn1cc(C2=Nc3cc(NC(=O)C(N)C4CCCCC4)cc4c3C2=CNNC4=O)cn1 (configuration not stated),3 DSS,0.8 DSS,7.8 DSS,9.4 DSS
N#Cc1ccc(COC[C@H]2O[C@@H](n3c(NCc4ccc(Cl)c(Cl)c4)nc4c(N)ncnc43)[C@H](O)[C@@H]2O)cc1,0 DSS,0 DSS,2.3 DSS,1.7 DSS
NCC(=O)Nc1ccc(-n2nc(C(F)(F)F)cc2-c2ccc3c(ccc4ccccc43)c2)cc1,8 DSS,7.3 DSS,5 DSS,8.7 DSS
NC[C@@](O)(c1ccc(Cl)cc1)c1ccc(-c2cn[nH]c2)cc1,7.8 DSS,7.6 DSS,3 DSS,6 DSS
Nc1nccc(-c2c(-c3ccc(F)cc3)ncn2C2CCCCC2)n1,0 DSS,0 DSS,0 DSS,0 DSS
Nc1ncnc2c1c(COc1cccc(Cl)c1)nn2C1CCOCC1,0 DSS,0 DSS,0 DSS,1.2 DSS
O=C(NC[C@H](O)CN1CCc2ccccc2C1)c1cc(NC2COC2)ncn1,0 DSS,0 DSS,0.5 DSS,1.8 DSS
O=C(NOCC1CC1)c1ccc(F)c(F)c1Nc1ccc(I)cc1Cl,6.2 DSS,8.5 DSS,1.8 DSS,7.7 DSS
O=C(NOC[C@H](O)CO)c1ccc(F)c(F)c1Nc1ccc(I)cc1F,2 DSS,4.7 DSS,0 DSS,9.8 DSS
O=C(O)c1ccc(-c2c[nH]c3ncc(-c4ccccc4)cc23)cc1C1CCCC1,0 DSS,0 DSS,0 DSS,0 DSS
O=C(O)c1ccc(CN2CCC(CN[C@@H]3C[C@H]3c3ccccc3)CC2)cc1,0 DSS,0 DSS,0 DSS,0 DSS

Compound,drug sensitivity score ([1]; shRNA: shPPFIA1_1),drug sensitivity score ([1]; shRNA: shScramble),drug sensitivity score ([2]; shRNA: shPPFIA1_1),drug sensitivity score ([2]; shRNA: shScramble)
O=C1NC(=O)/C(=C/c2ccc3nccc(-c4ccncc4)c3c2)S1,0 DSS,0 DSS,0 DSS,4.3 DSS
O=c1[nH]c(C2CCCN2)nc2c1oc1ccc(Cl)cc12 (configuration not stated),0 DSS,0 DSS,0 DSS,0 DSS
O=c1cc(N2CCOCC2)oc2c(-c3ccccc3)cccc12,0.1 DSS,2.4 DSS,1.7 DSS,0 DSS
OCCn1cc(-c2cnc3nnn(Cc4ccc5ncccc5c4)c3n2)cn1,0 DSS,0 DSS,0.9 DSS,0 DSS
Oc1c2ccccc2c2c3c(cccc13)N=N2,0 DSS,0 DSS,0 DSS,0.5 DSS
COc1ccc(C[C@H](NC(=O)[C@H](C)NC(=O)CN2CCOCC2)C(=O)N[C@@H](Cc2ccccc2)C(=O)C2(C)CO2)cc1 (stereo in doubt) [ONX-0914],19.1 DSS,18.6 DSS,17.1 DSS,18.1 DSS
Cn1cc(C[C@@H](N)C(=O)O)c2ccccc21 [1-methyl-D-tryptophan],0 DSS,0 DSS,0 DSS,0.9 DSS
COc1cc2c(cc1O)CC[C@@H]1[C@@H]2CC[C@]2(C)[C@@H](O)CC[C@@H]12 [2-methoxyestradiol],0 DSS,0.3 DSS,0.7 DSS,2.9 DSS
CC/C(=C(\c1ccc(O)cc1)c1ccc(OCCN(C)C)cc1)c1ccccc1 [4-hydroxytamoxifen],2.2 DSS,3.3 DSS,2.7 DSS,4.8 DSS
Nc1ncnc2c1nc(N)n2[C@@H]1O[C@H](CO)[C@@H](O)[C@H]1O [8-amino-adenosine],12.2 DSS,13.8 DSS,18.1 DSS,22.8 DSS
Nc1ncnc2c1nc(Cl)n2[C@@H]1O[C@H](CO)[C@@H](O)[C@H]1O [8-chloro-adenosine],0.9 DSS,0 DSS,1.3 DSS,10.6 DSS
CCCCC/C=C/C=C1/C(=O)C=C[C@@H]1C/C=C\CCCC(=O)O [15D-PGJ2],0 DSS,0 DSS,0 DSS,0 DSS
COc1cc(O)c2c(c1)/C=C/C[C@H](O)[C@H](O)C(=O)/C=C\C[C@H](C)OC2=O [(5Z)-7-Oxozeaenol],0.4 DSS,2.7 DSS,0 DSS,2.1 DSS
COc1ccc(S(=O)(=O)Nc2cccnc2Nc2ccc(O)cc2)cc1 [ABT-751],2.1 DSS,0.1 DSS,0 DSS,4.5 DSS
Cc1ccccc1C(C(=O)NC1CCCCC1)N(C(=O)Cn1ccnc1C)c1cccc(F)c1 (configuration not stated) [AGI-5198],0 DSS,0 DSS,0 DSS,0 DSS
O=C(Nc1cccc(C(F)(F)F)c1)Nc1cc(S(=O)(=O)NC2CC2)ccc1-c1ccsc1 [AGI-6780],0.5 DSS,0 DSS,0 DSS,0 DSS
COc1ccc2c(OCc3nnc4ccc(-c5ccccc5)nn34)ccnc2c1 [AMG-208],0 DSS,0 DSS,1.9 DSS,8.6 DSS
CC(C)[C@@H](CS(=O)(=O)C(C)C)N1C(=O)[C@@](C)(CC(=O)O)C[C@H](c2cccc(Cl)c2)[C@H]1c1ccc(Cl)cc1 [AMG-232],12.7 DSS,0 DSS,0 DSS,0 DSS
Cc1csc(-c2nnc(Nc3ccc(Oc4ncccc4-c4ccnc(N)n4)cc3)c3ccccc23)c1 [AMG-900],0 DSS,0 DSS,0 DSS,0.3 DSS
CC1CCC(n2c3cnccc3c3cnc(Nc4ccc5c(n4)CCN(C(=O)CO)C5)nc32)CC1 (configuration not stated) [AMG-925],0 DSS,0 DSS,0 DSS,0 DSS
COCC1(CO)C(=O)C2CCN1CC2 (configuration not stated) [APR-246],0 DSS,0 DSS,1.3 DSS,0 DSS
Cc1ccc(C(=O)Nc2ccc(CN3CCN(C)CC3)c(C(F)(F)F)c2)cc1C#Cc1cnc2cccnn12 [Ponatinib],,,0.1 DSS,3.6 DSS
CCC(C)(C)C(=O)O[C@H]1C[C@@H](C)C=C2C=C[C@H](C)[C@H](CC[C@@H]3C[C@@H](O)CC(=O)O3)[C@H]21 [Simvastatin],,,0 DSS,2.8 DSS
